The results in this text go back to patent US11884631B1 (priority 2023, dated 2024).

For orientation: melting point means the temperature, or range, at which the solid turns liquid.

Data set [1] deals with Mycobacterium tuberculosis H37Rv. As to the kind of experiment: Anti-tubercular activity (MIC), susceptible H37Rv strain. Format: cell-based. The settings on record: ATCC 25177 / H37Rv, MIC = minimum drug concentration inhibiting growth with no color change in the well, read-out: MIC (μg/mL) Susceptible (H37Rv).

For the compound `Cc1ccc2c(ccc[n+]2CC(=O)c2ccc(Br)cc2)c1.[Br-]`, the melting point lay in the range of 221 to 222 °C.

Regarding `Cc1ccc2c(ccc[n+]2CC(=O)c2ccccc2[N+](=O)[O-])c1.[Br-]` [Compound 3a, 6-Methyl-1-(2-(2-nitrophenyl)-2-oxoethyl)quinolin-1-ium bromide], the melting point was in the range of 218 to 219 °C. In addition, the MIC in data set [1] is 32 µg/mL.

Compound `Cc1ccc2c(ccc[n+]2CC(=O)c2cc(C(F)(F)F)cc(C(F)(F)F)c2)c1.[Br-]` [Compound 3c, 1-(2-(3,5-Bis(trifluoromethyl)phenyl)-2-oxoethyl)-6-methylquinolin-1-ium bromide] came in with a melting point of 246 to 247 °C. The MIC in data set [1] is 16 µg/mL.

In turn, `Cc1ccc2c(ccc[n+]2CC(=O)c2ccc(F)cc2)c1.[Br-]` [Compound 3b, 1-(2-(4-Fluorophenyl)-2-oxoethyl)-6-methylquinolin-1-ium bromide] registered a melting point of 206 to 207 °C. In data set [1], the MIC worked out at 8 µg/mL.
